From patent US10086034B2, “Compositions and methods for inducing urinary voiding and defecation” (Dignify Therapeutics, LLC, priority 2013, dated 2018)
“Also recorded” adds a separate entry of the source. Where no end group is shown, it is not given here. [ ]: non-standard residue; d: D form. βAla = NCCC(=O)O

How the values were obtained:
[1] = system: Beagle dogs; experiment: Adverse events after a high i.v. dose of NK2R agonist in beagle dogs; format: in vivo; settings: 150 ug/kg intravenous, stated in Example 10 (present tense methods)
Procedure: General: Beagle dogs (6-11 kg, purpose-bred and experimentally naïve) are housed at an AAALAC approved facility in cages (1/cage) with access to water and food. A butterfly intravenous catheter is inserted into a vein (e.g. radial or saphenous). All animal activities are performed in compliance with USDA guidelines. Animals are monitored for 5 days prior to dosing to ensure adequate health.
Treatments and Dosing: Animals are administered a dose of an NK2R agonist that produces observed adverse events. […] Adverse events are commonly quantified by measuring the number of events and the duration of each event occurring during “1 minute time bins” after NK2R agonist administration to create a time histogram of events. When voiding has stopped, a NK2R antagonist is administered intravenously. Efficacy of the NK2R antagonist is obtained by measuring the reduction in the number and duration of adverse events.

[2] = system: colorectum of anesthetized acutely spinalized female rats; experiment: Colorectal contractility: balloon catheter colorectal pressure in anesthetized rats; format: in vivo, Sprague Dawley rats; settings: antagonist 1 mg/kg i.v.; DTI-100 10 μg/kg given 5 min later
Procedure: General: In vivo studies were performed in anesthetized, acutely spinalized (T9-10 level) rats (N=37) or spinally intact (N=3) rats. Adult female Sprague Dawley rats (Charles River, N.C.; 250-300 g) were housed at an AAALAC approved facility in cages (3/cage) with free access to water and food in a colony room that was maintained on a 12 hr/12 hr light/dark cycle 1-2 weeks before the experiment. Rats were anesthetized with urethane (1.2-1.4 g/kg subcutaneous injection). Surgical procedures were then performed with the addition of isoflurane anesthesia (0.05-1.5% in O2) as the full anesthetic effect of urethane takes about 1-2 hrs. […]
Colorectal Contractility: Colorectal pressures were measured via a latex balloon catheter (length 3-5 cm) inserted (˜4 cm) into the distal rectal/colon region. […] This allowed drug induced changes in colorectal pressure to be monitored. Parameters measured include peak colorectal pressure response, duration of time above baseline activity (in the 1st 5 min after drug administration), area under the curve (measured during the 1st 5 min after drug administration) and the number of contractile events after vehicle and drug administration. […]
Data analysis: Data were examined qualitatively and quantitatively. The mean, standard deviation and standard error of the mean were calculated using MICROSOFT EXCEL. […]

[3] = system: bladder of anesthetized acutely spinalized female rats; experiment: Bladder contractility: isovolumetric bladder pressure recording in anesthetized acutely spinalized rats; format: in vivo, Sprague Dawley rats; settings: for effect of antagonist pre-administration on DTI-100 induced increase in bladder pressure: antagonist 1 mg/kg, DTI-100 10 μg/kg i.v., paired t-test, N=4; for bladder pressure (peak pressure response): increasing i.v. doses, acutely spinalized anesthetized female rats
Procedure: General: In vivo studies were performed in anesthetized, acutely spinalized (T9-10 level) rats (N=37) or spinally intact (N=3) rats. Adult female Sprague Dawley rats (Charles River, N.C.; 250-300 g) were housed at an AAALAC approved facility in cages (3/cage) with free access to water and food in a colony room that was maintained on a 12 hr/12 hr light/dark cycle 1-2 weeks before the experiment. Rats were anesthetized with urethane (1.2-1.4 g/kg subcutaneous injection). Surgical procedures were then performed with the addition of isoflurane anesthesia (0.05-1.5% in O2) as the full anesthetic effect of urethane takes about 1-2 hrs.
A catheter filled with heparinized saline (50 unit/ml) was inserted into the carotid artery and connected to a pressure transducer for measurement of blood pressure and heart rate. A catheter was inserted into the jugular vein for intravenous (i.v.) administration of drugs. In order to transect the spinal cord, the skin and muscle on the dorsal side at the level of the lower thoracic vertebrae were incised, and the spinal cord was carefully exposed by a laminectomy and transected at the T8-T10 spinal level. Gelfoam was placed at the incision site and the muscle and skin overlying the vertebrae were closed with wound clips. The spinal cord was cut at least 60 min before starting the experimental protocol.
Bladder Contractility: For isovolumetric recordings of bladder pressure a saline-filled polyethylene tubing with a flared tip (PE 50®) catheter was inserted into the bladder and secured in place at the dome. This catheter was used to slowly infuse saline (0.2-0.3 ml/min by an infusion pump (PHD2000 infusion, Harvard Apparatus, Holliston, Mass.) to determine the bladder capacity. The bladder capacity was determined as the volume necessary to fill the bladder to the leak point pressure (i.e. volume required to produce voiding). The bladder was then emptied, the external urethra occluded and the bladder filled to 70% capacity. This method produced a stable baseline pressure in which drug induced changes in bladder contractility could be measured. Peak pressure responses, time to peak, and time to return to near baseline values (within 5 mmHg of baseline; i.e. duration of action) after vehicle and drug administration were measured.
Dosing: Responses to saline i.v. were given to ensure stable baseline pressures and lack of response to saline (vehicle control for DTI-100) at the start of each protocol and periodical throughout the experiment. DTI-100 was given in dose range of 0.01-100 μg/kg. The NK1R antagonist, Spantide I (solubilized in saline) and NK2R antagonist GR159897 (solubilized at 50 mM in DMSO and then diluted in saline) were given at a 1 mg/kg dose. Neurokinin A (NKA) and (betaAla8)NKA(4-10) were given at doses 1-100 μg/kg. Additional routes of drug administration explored included, intramuscular, subcutaneous, and sublingual. [Lys5,MeLeu9,Nle10]-NKA(4-10) (SEQ ID NO: 1) or “DTI-100”, Spantide I, GR159897, Neurokinin A, and (BetaAla8)NKA(4-10) were obtained from TOCRIS R&D SYSTEMS, Inc. (Minneapolis, Minn.).
Data analysis: Data were examined qualitatively and quantitatively. The mean, standard deviation and standard error of the mean were calculated using MICROSOFT EXCEL. One way ANOVA tests were performed with PRISM 5 for WINDOWS (Graphpad Software, Inc., La Jolla, Calif.) and unpaired and paired t-tests were performed in EXCEL. P<0.05 was considered as statistically significant.

Row | Compound | effect of antagonist pre-administration on DTI-100 induced increase in colorectal activity [2] | effect of antagonist pre-administration on DTI-100 induced increase in bladder pressure [3] | bladder pressure (peak pressure response) [3] | other results
1 | CCCC[C@H](NC(=O)[C@H](CC(C)C)N(C)C(=O)CNC(=O)[C@@H](NC(=O)[C@H](Cc1ccccc1)NC(=O)[C@H](CCCCN)NC(=O)[C@@H](N)CC(=O)O)C(C)C)C(N)=O [DTI-100, [Lys5,MeLeu9,Nle10]-NKA(4-10)] |  |  |  | duration of adverse events [1]: approximately 15 minutes; adverse events observed ([1]; within minutes after voiding and defecation): retching, emesis, panting, and vocalization
2 | COC1(C[S@@+]([O-])c2ccccc2)CCN(CCc2c[nH]c3ccc(F)cc23)CC1 [GR159897] | significantly blocked the bladder pressure increase produced by DTI-100 | significantly blocked the bladder pressure increase to DTI-100 |  | 
3 | Asp-Ser-Phe-Val-β-Ala-Leu-Met-NH2 (DSFV[βAla]LM-NH2) [(betaAla8)NKA(4-10), peptide agonist for NK2R] |  |  | produce increases in bladder pressure | 
4 | His-Lys-Thr-Asp-Ser-Phe-Val-Gly-Leu-Met-NH2 (HKTDSFVGLM-NH2) [NKA, neuropeptide neurokininA, peptide agonist for NK2R] |  |  | produce increases in bladder pressure | time to peak bladder pressure response ([3]; i.v., all doses studied): ≤ 60 s; bladder pressure ([3]; intramuscular, subcutaneous and sublingual injections, DTI-100 10-100 μg/kg, NKA 5-100 μg/kg): showed an increase in bladder pressure
5 | Spantide I | did not reduce the effect of DTI-100 on colorectal activity | did not reduce the effect of DTI-100 on bladder pressure; also recorded: the same before (Before) and after (After) administration |  | 
